Data published in patent US8569342B2, “Diastereomers of 4-aryloxy-3-hydroxypiperidines” (Brentwood Equities, Ltd., priority 2003, dated 2013).
Like-named read-outs stand apart in the source and are kept apart here.

Tests used:
human 5-HT1A receptor = target: T1, human 5-HT1A receptor (Homo sapiens, UniProt P08908); experiment: 5-HT1A receptor binding assay; settings: for inhibition at 0.1 µM: 100 nM compound, 0.5 nM [3H]-8-OH-DPAT, 60 minutes at 22° C., CHO cells, read-out: % inhibition of control specific at 100 nM conc.
T1 construct: expressed in transfected cells; host or cells: CHO cells
T1 sequence (P08908 1-422): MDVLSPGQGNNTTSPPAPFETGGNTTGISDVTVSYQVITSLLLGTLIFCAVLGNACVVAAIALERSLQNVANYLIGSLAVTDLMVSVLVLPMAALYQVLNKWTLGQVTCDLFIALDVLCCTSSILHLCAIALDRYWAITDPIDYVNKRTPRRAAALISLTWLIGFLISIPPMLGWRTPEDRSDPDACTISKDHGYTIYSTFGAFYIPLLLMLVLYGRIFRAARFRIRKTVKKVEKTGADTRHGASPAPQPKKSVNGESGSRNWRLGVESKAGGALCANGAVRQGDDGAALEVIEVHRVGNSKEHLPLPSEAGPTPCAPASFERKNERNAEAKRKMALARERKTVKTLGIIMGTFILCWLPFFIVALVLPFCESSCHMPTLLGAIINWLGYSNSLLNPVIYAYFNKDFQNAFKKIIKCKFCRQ
Procedure: (§1) 5-HT receptor binding assays were performed according to the method well known in the art. See for example Mulerhorn et al. J. Biol. Chem. 269 (1994) 12954-12962, Bonhaus et al. (1995) et al. J. Biol. Chem. 269 (1994) 12954-12962 herein incorporated by reference in its entirety. See also U.S. Pat. Nos. 5,126,363; 5,688,807; 5,786,157; and 5,869,691 herein incorporated by reference in their entirety.
(§2) Briefly, CHO cells expressing human 5-HT receptor subtypes, or membranes prepared therefrom, were incubated with a specific radioactive ligand for 60 minutes at 22° C. (0.5 nM of [^3H]-8-OH-DPAT for 5-HT1A receptors, 1.2 nM of [^3H]-LSD for 5-HT2B receptors). Incubations were performed in the presence or absence of one of the following diastereomers: 10 μM 8-OH-DPAT; 100 nM (3S,4R)-4-(2,3-dimethylphenyl)-3-hydroxypiperidine; 100 nM (3R,4S)-4-(2,3-dimethylphenyl)-3-hydroxypiperidine; 100 nM (3R,4R)-4-(2,3-dimethylphenyl)-3-hydroxypiperidine; 100 nM (3S,4S)-4-(2,3-dimethylphenyl)-3-hydroxypiperidine. Following incubation the cells or membranes were washed recovered and the radioactivity content of the filter used to determine specific receptor binding and inhibition by the essential pure diastereomers.

human 5-HT2B receptor = human 5-HT2B receptor (Homo sapiens, UniProt P41595); experiment: 5-HT2B receptor binding assay; settings: for inhibition at 0.1 µM: 100 nM compound, 1.2 nM [3H]-LSD, 60 minutes at 22° C., CHO cells, read-out: % inhibition of control specific at 100 nM conc.
Sequence of human 5-HT2B receptor (P41595 whole entry): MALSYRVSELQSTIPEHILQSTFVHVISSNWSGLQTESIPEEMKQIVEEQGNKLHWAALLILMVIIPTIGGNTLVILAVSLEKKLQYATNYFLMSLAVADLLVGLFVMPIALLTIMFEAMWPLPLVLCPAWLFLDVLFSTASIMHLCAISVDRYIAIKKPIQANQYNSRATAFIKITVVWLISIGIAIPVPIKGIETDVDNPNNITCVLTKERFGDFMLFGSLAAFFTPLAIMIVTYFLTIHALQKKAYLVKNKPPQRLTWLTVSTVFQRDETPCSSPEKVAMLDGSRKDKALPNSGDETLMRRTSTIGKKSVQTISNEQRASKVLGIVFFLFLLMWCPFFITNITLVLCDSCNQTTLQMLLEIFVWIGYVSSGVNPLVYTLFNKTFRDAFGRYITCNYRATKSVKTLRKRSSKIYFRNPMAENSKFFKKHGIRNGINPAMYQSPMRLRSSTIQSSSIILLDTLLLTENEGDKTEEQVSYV
Procedure: as §1, §2

5-HT3 = 5-HT3 (Homo sapiens, UniProt P46098); experiment: 5-HT3 receptor binding assay; settings: for inhibition at 0.1 µM: 100 nM compound, read-out: % inhibition of control specific at 100 nM conc.
Sequence of 5-HT3 (P46098 24-478): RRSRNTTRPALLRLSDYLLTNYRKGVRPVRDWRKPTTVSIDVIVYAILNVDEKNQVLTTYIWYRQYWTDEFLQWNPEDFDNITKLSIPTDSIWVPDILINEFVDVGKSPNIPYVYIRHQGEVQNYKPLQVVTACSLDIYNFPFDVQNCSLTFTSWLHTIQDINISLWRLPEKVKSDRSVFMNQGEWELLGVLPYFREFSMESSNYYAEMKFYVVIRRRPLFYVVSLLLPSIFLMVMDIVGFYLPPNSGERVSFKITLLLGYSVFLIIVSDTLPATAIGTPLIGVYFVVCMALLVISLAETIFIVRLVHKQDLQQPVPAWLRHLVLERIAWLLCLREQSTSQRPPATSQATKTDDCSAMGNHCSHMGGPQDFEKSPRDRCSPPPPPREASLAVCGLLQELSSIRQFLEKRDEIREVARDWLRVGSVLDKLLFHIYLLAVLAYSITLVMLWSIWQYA

5-HT4C = 5-HT4C receptor binding assay; parameters: species or system human; settings: for % inhibition of control specific at 100 nM conc.: 100 nM compound
Procedure: as §1, §2

5-HT7 = target: T2, 5-HT7 (Homo sapiens, UniProt P34969); experiment: 5-HT7 receptor binding assay; settings: for inhibition at 0.1 µM: 100 nM compound, read-out: % inhibition of control specific at 100 nM conc.
T2 construct: expressed in transfected cells; host or cells: CHO cells
T2 sequence (P34969 whole entry): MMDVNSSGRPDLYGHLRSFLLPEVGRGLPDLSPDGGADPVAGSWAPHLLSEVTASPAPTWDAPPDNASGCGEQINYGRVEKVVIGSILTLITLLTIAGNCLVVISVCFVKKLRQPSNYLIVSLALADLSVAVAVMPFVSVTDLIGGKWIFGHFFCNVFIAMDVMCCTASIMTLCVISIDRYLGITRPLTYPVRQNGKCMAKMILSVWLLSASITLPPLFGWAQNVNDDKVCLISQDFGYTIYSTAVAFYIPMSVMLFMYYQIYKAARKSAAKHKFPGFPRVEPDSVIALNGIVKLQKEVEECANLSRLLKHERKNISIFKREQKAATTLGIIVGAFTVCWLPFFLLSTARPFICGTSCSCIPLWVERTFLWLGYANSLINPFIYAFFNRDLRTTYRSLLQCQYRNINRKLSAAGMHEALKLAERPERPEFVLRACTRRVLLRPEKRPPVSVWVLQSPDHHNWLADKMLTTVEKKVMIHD

5-HT2c = 5-HT2c (Homo sapiens, UniProt P28335); experiment: 5-HT2c receptor binding assay; settings: for inhibition at 0.1 µM: 100 nM compound, read-out: % inhibition of control specific at 100 nM conc.
Sequence of 5-HT2c (P28335 33-458): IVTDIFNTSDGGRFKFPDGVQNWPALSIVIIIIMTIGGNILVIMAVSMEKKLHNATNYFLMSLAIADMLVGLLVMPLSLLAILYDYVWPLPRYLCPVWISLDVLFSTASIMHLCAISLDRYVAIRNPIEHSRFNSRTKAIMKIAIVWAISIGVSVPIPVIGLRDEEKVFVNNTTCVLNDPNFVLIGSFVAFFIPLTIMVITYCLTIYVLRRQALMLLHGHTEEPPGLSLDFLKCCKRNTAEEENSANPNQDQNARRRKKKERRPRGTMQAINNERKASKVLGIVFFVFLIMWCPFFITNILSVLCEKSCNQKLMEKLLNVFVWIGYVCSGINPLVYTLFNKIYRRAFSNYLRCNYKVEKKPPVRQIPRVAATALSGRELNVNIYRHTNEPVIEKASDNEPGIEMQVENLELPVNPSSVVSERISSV

NE uptake = NE uptake (Homo sapiens, UniProt P23975); experiment: NE uptake binding assay; settings: for inhibition at 0.1 µM: 100 nM compound, read-out: % inhibition of control specific at 100 nM conc.
Sequence of NE uptake (P23975 whole entry): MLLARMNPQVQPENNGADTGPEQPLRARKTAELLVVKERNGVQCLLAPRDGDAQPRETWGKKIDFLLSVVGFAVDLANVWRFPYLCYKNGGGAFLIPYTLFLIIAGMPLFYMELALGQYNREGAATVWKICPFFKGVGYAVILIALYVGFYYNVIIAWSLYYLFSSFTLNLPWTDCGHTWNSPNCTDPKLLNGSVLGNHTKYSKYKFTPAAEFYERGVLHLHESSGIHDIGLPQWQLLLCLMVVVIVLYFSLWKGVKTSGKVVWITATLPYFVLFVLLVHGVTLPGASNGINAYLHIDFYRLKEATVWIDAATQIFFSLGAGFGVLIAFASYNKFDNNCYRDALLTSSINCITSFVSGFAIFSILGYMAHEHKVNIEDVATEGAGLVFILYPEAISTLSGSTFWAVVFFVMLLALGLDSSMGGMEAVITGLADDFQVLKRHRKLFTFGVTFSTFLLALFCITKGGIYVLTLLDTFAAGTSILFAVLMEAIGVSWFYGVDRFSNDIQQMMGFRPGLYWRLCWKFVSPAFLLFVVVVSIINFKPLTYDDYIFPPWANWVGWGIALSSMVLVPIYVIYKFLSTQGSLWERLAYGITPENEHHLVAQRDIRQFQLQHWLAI

5-HT1 receptors = settings: Waldmeier, cited from earlier work
5-HT2 receptors [1] = settings: Waldmeier, cited from earlier work
alpha1-noradrenoceptors = settings: in vitro; Waldmeier; cited from earlier work
alpha2-noradrenoceptors = settings: in vitro; Waldmeier; cited from earlier work
beta-noradrenoceptors = settings: in vitro; Waldmeier; cited from earlier work
histamine H1 receptors = settings: in vitro; Waldmeier; cited from earlier work
[2] = system: muscarinic acetylcholine receptors; settings: in vitro; Waldmeier; cited from earlier work
opiate receptors = settings: in vitro; Waldmeier; cited from earlier work
GABAA receptors = settings: in vitro; Waldmeier; cited from earlier work
benzodiazepine receptors = settings: in vitro; Waldmeier; cited from earlier work
doparine receptors = settings: in vivo; Waldmeier; cited from earlier work
5-HT2 receptors [3] = settings: in vivo; Waldmeier; cited from earlier work
[4] = system: 5-HT reuptake in the brain; settings: Delini-Stula et al.; cited from earlier work
[5] = system: 5-HT uptake processes in the periphery (blood platelets); settings: Delini-Stula et al.; cited from earlier work

Row | Compound | inhibition of binding to 5-HT1A receptors (in words) (human 5-HT1A receptor) | inhibition at 0.1 µM (human 5-HT1A receptor) [%] | inhibition at 0.1 µM (human 5-HT2B receptor) [%] | inhibition at 0.1 µM (5-HT3) [%] | % inhibition of control specific at 100 nM conc. (5-HT4C) [%] | inhibition of binding to 5-HT7 receptors (in words) (5-HT7) | inhibition at 0.1 µM (5-HT7) [%] | inhibition at 0.1 µM (5-HT2c) [%] | inhibition at 0.1 µM (NE uptake) [%] | inhibition of binding to 5-HT2c receptors (in words) (5-HT2c) | inhibition of binding to Ne (Norepinephrine) uptake receptors (in words) (NE uptake) | also measured
1 | Cc1cccc(O[C@@H]2CCNC[C@H]2O)c1C | inhibits binding | 16 | 6 | 4 | 0 | inhibits binding | 16 | -11 | -9 | – | – | –
2 | Cc1cccc(O[C@H]2CCNC[C@H]2O)c1C | effective inhibitor of binding | 39 | 48 | 6 | 8 | – | 1 | 4 | 3 | effective inhibitor of binding | – | inhibition of binding to 5-HT2B receptors (in words) (human 5-HT2B receptor): effective inhibitor of binding
3 | Cc1cccc(O[C@@H]2CCNC[C@@H]2O)c1C | – | 9 | 6 | 11 | 15 | – | 6 | -17 | 8 | – | inhibits binding | inhibition of binding to 5-HT3 receptors (in words) (5-HT3): inhibits binding; inhibition of binding to 5-HT4c receptors (in words) (5-HT4C): inhibits binding
4 | Cc1cccc(O[C@H]2CCNC[C@@H]2O)c1C | – | -8 | 6 | 5 | 5 | inhibits binding | 22 | 7 | 4 | inhibits binding | inhibits binding | –
5 | Cc1cccc(O[C@H]2CCNC[C@H]2O)c1C.Cc1cccc(O[C@H]2CCNC[C@H]2O)c1C.O=S(=O)(O)O (relative stereo) [ifoxetine, (+/−)-bis-[cis-3-hydroxy-4-(2,3-dimethyl-phenoxy)]-piperidine sulfate] | – | – | – | – | – | – | – | – | – | – | – | activity at 5-HT1 receptors (5-HT1 receptors; 10 μM of the racemate): minimal activity; interaction with 5-HT1 receptors (5-HT1 receptors; in vitro): weak or no interactions; activity at 5-HT2 receptors (5-HT2 receptors [1]; 10 μM of the racemate): minimal activity; interaction with 5-HT2 receptors (5-HT2 receptors [1]; in vitro): weak or no interactions; interaction with alpha1-noradrenoceptors (alpha1-noradrenoceptors): weak or no interactions; interaction with alpha2-noradrenoceptors (alpha2-noradrenoceptors): weak or no interactions; interaction with beta-noradrenoceptors (beta-noradrenoceptors): weak or no interactions; interaction with histamine H1 receptors (histamine H1 receptors): weak or no interactions; interaction with muscarinic acetylcholine receptors [2]: weak or no interactions; interaction with opiate receptors (opiate receptors): weak or no interactions; interaction with GABAA receptors (GABAA receptors): weak or no interactions; interaction with benzodiazepine receptors (benzodiazepine receptors): weak or no interactions; interaction with doparine receptors (doparine receptors): weak or no interactions; interaction with 5-HT2 receptors (5-HT2 receptors [3]): weak or no interactions; block of 5-HT reuptake in the brain [4]: specifically and selectively blocks; effect on 5-HT uptake processes in the periphery (blood platelets) [5]: without affecting
